Like-named read-outs stand apart in the source and are kept apart here.
Assays:
Type in all cases: cell-based
EC1010 (CMY-6, class C) = assay: Tigemonam potentiation (MPC@4) by β-lactamase inhibitors; conditions: tigemonam at 4 μg/mL; strain EC1010, CMY-6, class C; class symbols
Procedure: (§1) Selected β-lactamase inhibitors were tested for their ability to potentiate the monobactam tigemonam. […] Tigemonam is present in the test medium at 4 μg/mL. Compounds tested at the highest concentration of 40 μg/mL. In this assay potency of compounds is determined as a concentration of BLIs to inhibit growth of bacteria in the presence of 4 μg/mL of […] (MPC@4).

ECL1002 (class C) = assay: as above; conditions: tigemonam at 4 μg/mL; strain ECL1002, class C; class symbols
Procedure: as §1

KP1005 (CTX-M-14) = assay: as above; conditions: tigemonam at 4 μg/mL; strain KP1005, class A ESBL CTX-M-14; class symbols
Procedure: as §1

KP1007 (OXA-10, class D) = assay: as above; conditions: tigemonam at 4 μg/mL; strain KP1007, OXA-10, class D; class symbols
Procedure: as §1

KP1009 (CTX-M-15) = assay: as above; conditions: tigemonam at 4 μg/mL; strain KP1009, class A ESBL CTX-M-15; class symbols
Procedure: as §1

KP1010 (SHV-12) = assay: as above; conditions: tigemonam at 4 μg/mL; strain KP1010, class A ESBL SHV-12; class symbols
Procedure: as §1

ec302 (TEM-10) = assay: as above; conditions: tigemonam at 4 μg/mL; strain ec302, class A ESBL TEM-10; class symbols
Procedure: as §1

ec308 (SHV-5) = assay: as above; conditions: tigemonam at 4 μg/mL; strain ec308, class A ESBL SHV-5; class symbols
Procedure: as §1

KPX1001 (OXA-2, class D) = assay: as above; conditions: tigemonam at 4 μg/mL, strain KPX1001, OXA-2, class D
Procedure: as §1

PAM2035 (class C) = conditions: tigemonam at 4 μg/mL, strain PAM2035, class C
Procedure: as §1

EC1009 (TEM-10) = assay: Tigemonam potentiation (MPC@4) by β-lactamase inhibitors; conditions: tigemonam at 4 μg/mL; strain EC1009, class A ESBL TEM-10; class symbols
Procedure: as §1

KP1012 (SHV-18) = assay: as above; conditions: tigemonam at 4 μg/mL; strain KP1012, class A ESBL SHV-18; class symbols
Procedure: as §1

ec304 (TEM-26) = assay: as above; conditions: tigemonam at 4 μg/mL; strain ec304, class A ESBL TEM-26; class symbols
Procedure: as §1

Row | Compound | MPC4 CMY-6, EC1010 (EC1010 (CMY-6, class C)) | MPC4 ECL1002 (ECL1002 (class C)) | MPC4 CTX-M-14 KP1005 (KP1005 (CTX-M-14)) | MPC4 OXA-10, KP1007 (KP1007 (OXA-10, class D)) | MPC4 CTX-M-15 KP1009 (KP1009 (CTX-M-15)) | MPC4 SHV-12 KP1010 (KP1010 (SHV-12)) | MPC4 TEM-10 ec302 (ec302 (TEM-10)) | MPC4 SHV-5 ec308 (ec308 (SHV-5)) | MPC4 OXA-2, KPX1001 (KPX1001 (OXA-2, class D)) [µg/mL] | MPC4 PAM2035 (PAM2035 (class C)) [µg/mL] | MPC4 TEM-10 EC1009 (EC1009 (TEM-10)) | MPC4 SHV-18 KP1012 (KP1012 (SHV-18)) | MPC4 OXA-2, KPX1001 (KPX1001 (OXA-2, class D); class symbols) | MPC4 TEM-26 ec304 (ec304 (TEM-26)) | MPC4 PAM2035 (PAM2035 (class C); class symbols)
1 | CC(=O)N1CC(CC(=O)O)OB(O)[C@@H](NC(=O)Cc2cccs2)C1 (stereo partly drawn) [Compound 10, 2-((3R)-5-acetyl-2-hydroxy-3-(2-(thiophen-2-yl)acetamido)-1,5,2-oxazaborepan-7-yl)acetic acid] | Y (Y = MPC@4 of 2 μg/mL to 10 μg/mL.) | Y (Y = MPC@4 of 2 μg/mL to 10 μg/mL.) | Y (Y = MPC@4 of 2 μg/mL to 10 μg/mL.) | X (X = MPC@4 of less than 2 μg/mL.) | Y (Y = MPC@4 of 2 μg/mL to 10 μg/mL.) | X (X = MPC@4 of less than 2 μg/mL.) | Z (Z = MPC@4 of greater than 10 μg/mL.) | Y (Y = MPC@4 of 2 μg/mL to 10 μg/mL.) |  |  |  |  |  |  | 
2 | O=C(O)[C@H]1/C(=C/CO)O[C@@H]2CC(=O)N21 [Clavulanic Acid] |  |  |  |  |  |  |  |  | 1.25 | >40 |  |  |  |  | 
3 | C[C@]1(Cn2ccnn2)[C@H](C(=O)O)N2C(=O)C[C@H]2S1(=O)=O [Tazobactam] |  |  |  |  |  |  |  |  | 40 | 5 |  |  |  |  | 
4 | O=C(O)CC1COC[C@H](NC(=O)Cc2cccs2)B(O)O1 (stereo partly drawn) [Compound 1, 2-((3R)-2-hydroxy-3-(2-(thiophen-2-yl)acetamido)-1,5,2-dioxaborepan-7-yl)acetic acid] | X (X = MPC@4 of less than 2 μg/mL.) | Y (Y = MPC@4 of 2 μg/mL to 10 μg/mL.) | Y (Y = MPC@4 of 2 μg/mL to 10 μg/mL.) | Y (Y = MPC@4 of 2 μg/mL to 10 μg/mL.) | Y (Y = MPC@4 of 2 μg/mL to 10 μg/mL.) | X (X = MPC@4 of less than 2 μg/mL.) | Z (Z = MPC@4 of greater than 10 μg/mL.) | Y (Y = MPC@4 of 2 μg/mL to 10 μg/mL.) |  |  | Z (Z = MPC@4 of greater than 10 μg/mL.) | X (X = MPC@4 of less than 2 μg/mL.) | X (X = MPC@4 of less than 2 μg/mL.) | Z (Z = MPC@4 of greater than 10 μg/mL.) | Y (Y = MPC@4 of 2 μg/mL to 10 μg/mL.)
5 | COC(=O)N1CC(CC(=O)O)OB(O)[C@@H](NC(=O)Cc2cccs2)C1 (stereo partly shown) [Compound 45] |  |  | Y (Y = MPC@4 of 2 μg/mL to 10 μg/mL.) | X (X = MPC@4 of less than 2 μg/mL.) | Y (Y = MPC@4 of 2 μg/mL to 10 μg/mL.) | X (X = MPC@4 of less than 2 μg/mL.) | Z (Z = MPC@4 of greater than 10 μg/mL.) | Y (Y = MPC@4 of 2 μg/mL to 10 μg/mL.) |  |  |  |  |  |  | 
